These results are taken from ChEMBL document CHEMBL5154689, “Discovery of novel β-carboline derivatives as selective AChE inhibitors with GSK-3β inhibitory property for the treatment of Alzheimer's disease” (Eur J Med Chem, 2022).

The target in data set [1] is Cholinesterase (Equus caballus) (UniProt P81908). Kind of data set: Inhibition of equine serum BChE at 50 uM using butyrylthiocholine iodide as substrate preincubated with enzyme for 20 mins followed by substrate addition and measured after 20 mins by Ellman's method. The class given is cell-free. The note with it: time 40.0 min. (In general: In Ellman's method for cholinesterases, released thiocholine reacts with DTNB.)

The target of a further data set is Acetylcholinesterase (Electrophorus electricus, UniProt O42275). The experiment in a line: Inhibition of electric eel AChE using acetylthiocholine iodide as substrate preincubated with enzyme for 20 mins followed by substrate addition and measured after 20 mins by Ellman's method.
The target of another data set is Cholinesterase (Equus caballus, UniProt P81908). The experiment in a line: Inhibition of equine serum BChE using butyrylthiocholine iodide as substrate preincubated with enzyme for 20 mins followed by substrate addition and measured after 20 mins by Ellman's method. The class given is cell-free.
A short description of data set [2]: Selectivity index, ratio of IC50 for equine serum BChE to IC50 for electric eel AChE.
Data set [3] deals with T1, Glycogen synthase kinase-3 beta (Homo sapiens, UniProt P49841). Kind of data set: Inhibition of GSK3-beta (unknown origin) at 10 uM incubated for 60 mins by ATP-Glo luminescent assay.
Target sequence in this assay (P49841 whole entry, looked up): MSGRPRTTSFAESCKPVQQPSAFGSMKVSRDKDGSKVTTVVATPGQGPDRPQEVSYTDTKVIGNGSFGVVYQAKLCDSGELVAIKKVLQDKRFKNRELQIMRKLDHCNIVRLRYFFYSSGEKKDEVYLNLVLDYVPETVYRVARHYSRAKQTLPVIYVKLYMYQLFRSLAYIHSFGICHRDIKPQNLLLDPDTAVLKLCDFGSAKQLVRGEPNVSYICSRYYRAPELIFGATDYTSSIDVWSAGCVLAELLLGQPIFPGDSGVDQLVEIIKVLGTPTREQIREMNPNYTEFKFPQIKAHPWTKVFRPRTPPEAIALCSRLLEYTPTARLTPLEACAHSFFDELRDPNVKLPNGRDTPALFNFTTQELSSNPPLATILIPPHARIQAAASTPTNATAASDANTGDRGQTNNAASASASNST
The target in data set [4] is T1, Glycogen synthase kinase-3 beta. The experiment in a line: Inhibition of GSK3-beta (unknown origin) incubated for 60 mins by ATP-Glo luminescent assay.
Target sequence in this assay (P49841 whole entry): as the sequence (P49841 whole entry, looked up) above
Data set [5] addresses Dual specificity tyrosine-phosphorylation-regulated kinase 1A (Homo sapiens) (UniProt Q13627). Kind of data set: Inhibition of DYRK1A (unknown origin) at 0.5 to 1 uM. The note with it: dose 0.5-1 µM.
The target in data set [6] is Dual specificity tyrosine-phosphorylation-regulated kinase 1B (Homo sapiens) (UniProt Q9Y463). Kind of data set: Inhibition of DYRK1B (unknown origin) at 0.5 to 1 uM. As to conditions: dose 0.5-1 µM.
In another data set the test system is SH-SY5Y. Kind of data set: Cytotoxicity against human SH-SY5Y cells assessed as reduction in cell viability at 1 to 20 uM incubated for 48 hrs by MTT assay. The class given is toxicity, cell-based. As to conditions: dose 1-20 µM. For orientation: Tetrazolium dyes change colour on reduction, which living cells bring about.
The subject of the next data set is HepG2. The experiment in a line: Cytotoxicity against human HepG2 cells assessed as reduction in cell viability at 1 to 20 uM incubated for 48 hrs by MTT assay. The format is toxicity, cell-based. As to conditions: hepg2, 48 h, dose 1-20 µM.
The next data set concerns L02. The experiment in a line: Cytotoxicity against human HL7702 cells assessed as reduction in cell viability at 1 to 20 uM incubated for 48 hrs by MTT assay. The class given is toxicity, cell-based. The note with it: l02, 48 h, dose 1-20 µM.
The subject of the next data set is HEK-293T. The experiment in a line: Cytotoxicity against human HEK-293T cells assessed as reduction in cell viability at 1 to 20 uM incubated for 48 hrs by MTT assay. The class given is toxicity, cell-based. The note with it: dose 1-20 µM.
Data set [7] can be described thus: Acute toxicity in C57BL/6 mouse assessed as effect on body weight at 1000 to 1500 mg/kg measured after 14 days. The class given is organism-based. The note with it: in vivo, 336 h, dose 1000-1500 mg/kg, time 14 day.
In data set [8] the target is T1, Glycogen synthase kinase-3 beta. The experiment in a line: Inhibition of GSK3-beta in human HEK293T cells harboring tau P301L mutant assessed as inhibition of tau hyperphosphorylation at Ser396 residue measured after 48 hrs by western blot analysis. As to conditions: dose 2.5-10 µM, DDE = dose-dependent effect. The class given is cell-based.
Target sequence in this assay (P49841 whole entry, looked up): as above
Data set [9] deals with Glycogen synthase kinase-3 alpha (Homo sapiens) (UniProt P49840). Kind of data set: Inhibition of GSK3-alpha (unknown origin) at 0.5 to 1 uM. As to conditions: dose 0.5-1 µM.
Data set [10] concerns the target T1, Glycogen synthase kinase-3 beta. Kind of data set: Inhibition of GSK3-beta in human HEK293T cells harboring tau P301L mutant assessed as reduction of NFT production measured after 24 hrs by fluorescence staining based analysis. The format is cell-based. As to conditions: dose 2.5-10 µM, DDE = dose-dependent effect.
Target sequence in this assay (P49841 whole entry, looked up): as above
For data set [11], the target named is Acetylcholinesterase (Electrophorus electricus) (UniProt O42275). The experiment in a line: Potency index, ratio of harmine IC50 to test compound IC50 for electric eel AChE.
For data set [12], the target named is T1, Glycogen synthase kinase-3 beta. The experiment in a line: Inhibition of GSK3-beta in human HEK293T cells harboring tau P301L mutant assessed as increase in GSK3-beta phosphorylation at Ser9 residue measured after 48 hrs by western blot analysis. The format is cell-based. As to conditions: dose 2.5-10 µM, DDE = dose-dependent effect. For orientation: A western blot detects proteins with antibodies after separation by electrophoresis.
Target sequence in this assay (P49841 whole entry, looked up): as above

Calls of active or inactive are those of the source. The rule behind the calls is not given here.

Sequence of Acetylcholinesterase (O42275 whole entry): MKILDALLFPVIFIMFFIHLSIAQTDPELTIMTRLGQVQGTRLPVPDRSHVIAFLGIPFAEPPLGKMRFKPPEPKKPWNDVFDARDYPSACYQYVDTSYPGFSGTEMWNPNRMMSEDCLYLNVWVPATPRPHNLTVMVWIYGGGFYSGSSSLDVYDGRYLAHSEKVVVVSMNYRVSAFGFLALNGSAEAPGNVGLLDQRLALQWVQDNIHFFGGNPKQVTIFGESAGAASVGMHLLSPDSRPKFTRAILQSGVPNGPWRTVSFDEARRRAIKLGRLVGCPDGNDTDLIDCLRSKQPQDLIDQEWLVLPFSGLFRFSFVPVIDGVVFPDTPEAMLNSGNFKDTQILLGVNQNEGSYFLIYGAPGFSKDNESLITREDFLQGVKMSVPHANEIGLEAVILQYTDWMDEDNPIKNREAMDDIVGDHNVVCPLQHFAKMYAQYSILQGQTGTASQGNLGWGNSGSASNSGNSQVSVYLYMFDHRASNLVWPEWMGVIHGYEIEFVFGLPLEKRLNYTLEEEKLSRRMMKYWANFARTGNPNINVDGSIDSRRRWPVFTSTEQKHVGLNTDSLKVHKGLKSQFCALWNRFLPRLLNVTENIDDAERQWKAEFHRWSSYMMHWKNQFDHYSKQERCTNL
Sequence of Acetylcholinesterase (Electrophorus electricus) (O42275 24-633 limits assumed): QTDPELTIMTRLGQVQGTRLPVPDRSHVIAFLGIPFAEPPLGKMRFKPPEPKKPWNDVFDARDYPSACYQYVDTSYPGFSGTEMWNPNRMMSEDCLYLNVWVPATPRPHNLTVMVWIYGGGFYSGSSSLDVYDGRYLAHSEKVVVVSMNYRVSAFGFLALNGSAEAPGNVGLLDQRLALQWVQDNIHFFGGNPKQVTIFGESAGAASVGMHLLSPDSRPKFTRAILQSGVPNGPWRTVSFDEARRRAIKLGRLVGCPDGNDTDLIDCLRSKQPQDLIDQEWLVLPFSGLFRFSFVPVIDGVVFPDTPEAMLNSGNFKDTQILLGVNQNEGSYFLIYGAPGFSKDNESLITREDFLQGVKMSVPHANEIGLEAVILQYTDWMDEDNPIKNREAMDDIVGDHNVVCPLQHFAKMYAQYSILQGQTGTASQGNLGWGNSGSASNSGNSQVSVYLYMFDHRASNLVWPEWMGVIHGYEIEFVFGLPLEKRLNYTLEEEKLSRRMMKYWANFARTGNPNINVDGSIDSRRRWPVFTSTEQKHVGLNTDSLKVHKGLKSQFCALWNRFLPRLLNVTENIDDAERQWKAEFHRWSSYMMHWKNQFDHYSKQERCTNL
Sequence of Glycogen synthase kinase-3 alpha (Homo sapiens) (P49840 2-483 limits assumed): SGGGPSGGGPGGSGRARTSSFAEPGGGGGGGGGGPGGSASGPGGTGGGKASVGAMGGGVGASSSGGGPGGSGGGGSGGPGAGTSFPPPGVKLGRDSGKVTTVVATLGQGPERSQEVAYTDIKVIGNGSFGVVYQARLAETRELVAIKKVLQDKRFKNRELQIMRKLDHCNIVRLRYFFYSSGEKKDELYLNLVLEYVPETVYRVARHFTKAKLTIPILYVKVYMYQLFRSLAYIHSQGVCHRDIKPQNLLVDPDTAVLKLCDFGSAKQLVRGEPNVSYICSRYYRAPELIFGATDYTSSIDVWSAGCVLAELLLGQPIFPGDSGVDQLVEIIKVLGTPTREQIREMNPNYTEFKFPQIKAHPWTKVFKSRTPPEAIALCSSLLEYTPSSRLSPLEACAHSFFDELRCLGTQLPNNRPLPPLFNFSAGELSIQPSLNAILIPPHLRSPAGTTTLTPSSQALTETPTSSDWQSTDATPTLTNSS
Sequence of Cholinesterase (Equus caballus) (P81908 whole entry): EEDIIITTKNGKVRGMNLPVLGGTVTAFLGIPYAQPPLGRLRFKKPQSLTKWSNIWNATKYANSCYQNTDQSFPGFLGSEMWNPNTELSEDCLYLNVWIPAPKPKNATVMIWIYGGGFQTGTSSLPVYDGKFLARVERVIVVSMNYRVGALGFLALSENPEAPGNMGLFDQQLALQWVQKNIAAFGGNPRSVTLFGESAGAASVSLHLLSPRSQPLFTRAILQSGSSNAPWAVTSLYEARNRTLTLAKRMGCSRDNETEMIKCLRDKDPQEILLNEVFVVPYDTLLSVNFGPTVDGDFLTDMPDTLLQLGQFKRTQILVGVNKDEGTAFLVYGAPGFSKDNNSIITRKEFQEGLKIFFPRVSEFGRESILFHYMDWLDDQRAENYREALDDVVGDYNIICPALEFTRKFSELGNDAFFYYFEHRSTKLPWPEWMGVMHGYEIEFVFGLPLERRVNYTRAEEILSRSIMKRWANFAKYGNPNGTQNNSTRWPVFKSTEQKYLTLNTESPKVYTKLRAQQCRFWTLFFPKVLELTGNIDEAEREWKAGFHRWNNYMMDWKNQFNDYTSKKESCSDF
Sequence of Cholinesterase (P81908 whole entry): as above
Sequence of Dual specificity tyrosine-phosphorylation-regulated kinase 1B (Homo sapiens) (Q9Y463 whole entry, looked up): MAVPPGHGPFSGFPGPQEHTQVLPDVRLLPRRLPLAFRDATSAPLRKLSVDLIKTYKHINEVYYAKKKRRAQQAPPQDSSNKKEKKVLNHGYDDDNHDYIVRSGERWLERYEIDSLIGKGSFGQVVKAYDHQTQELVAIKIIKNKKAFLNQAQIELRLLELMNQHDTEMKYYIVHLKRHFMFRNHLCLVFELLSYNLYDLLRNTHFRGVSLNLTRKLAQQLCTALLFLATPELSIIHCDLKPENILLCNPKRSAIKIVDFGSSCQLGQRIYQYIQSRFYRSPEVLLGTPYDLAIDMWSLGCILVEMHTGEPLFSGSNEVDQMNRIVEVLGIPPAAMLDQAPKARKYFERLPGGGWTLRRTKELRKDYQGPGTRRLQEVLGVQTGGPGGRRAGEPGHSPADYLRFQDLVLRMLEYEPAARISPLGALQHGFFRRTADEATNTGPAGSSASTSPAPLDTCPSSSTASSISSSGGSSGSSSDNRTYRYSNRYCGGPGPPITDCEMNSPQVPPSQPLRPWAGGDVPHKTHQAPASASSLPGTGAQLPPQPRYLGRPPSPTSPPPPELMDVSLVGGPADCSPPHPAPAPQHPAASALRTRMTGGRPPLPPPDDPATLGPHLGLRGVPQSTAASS

Broadly, the inhibition is the relative decrease from the control value, in per cent. The term IC50 denotes the concentration that inhibits the measured activity by half. Read a high IC50 as lower potency. For `O=C(NCCC1CCN(Cc2ccccc2F)CC1)c1ccc2c(c1)[nH]c1c(NC(=O)C3CC3)nccc12`, the inhibition in data set [1] is 63%; in data set [3] it was 60.8%; in [8], “Dde”; in [10], “Dde”; in data set [12] it was “Dde”. Besides, the IC50 against Acetylcholinesterase was found to be 0.27 µM; against Cholinesterase it was 20.8 µM; in [4] it was 6.78 µM. For the same molecule, the Ratio IC50 amounted to 77.1 in data set [2] and 37 in [11]. Moreover, the inhibition result in data set [5], in data set [6] and in data set [9] was “Active” in each case. Also, the Activity result (with SH-SY5Y; with HepG2; in the data set with L02; in the data set on HEK-293T; in [7]) was “Non-Toxic” throughout.
